Measured values: paper PMC6562672, “Dose-Dependent Sorafenib-Induced Immunosuppression Is Associated with Aberrant NFAT Activation and Expression of PD-1 in T Cells” (Cancers, 2019)
Read-outs that look alike come from different tables or passages of the source.

Experiments:
[1] = cited from earlier work
PD-1 = assay: PD-1, CD8 and CD25 expression on T cells by imaging flow cytometry; assay type: cell-based, human
Protocol: (§1) PBMCs were allowed to ‘recover’ in AIM-V medium (Thermo Fisher Scientific) at 37 °C, 5% CO2 in a humidified atmosphere overnight. 2 × 10^6 cells were treated with 0–10 µM sorafenib for the durations specified in the results section. If the experimental conditions required T cell stimulation, samples were co-treated (stimulated) with 1 µg/mL anti-CD3 and 1 µg/mL anti-CD28 for 2 h. Following treatment, PBMCs were placed on ice to stop drug action and immunophenotyped for CD4, CD8, CD25, and PD-1 (CD279). NFAT1 was detected by indirect labeling. Antibodies were diluted in permeabilization wash buffer (PWB) consisting of 0.1% Triton-X-100 in FCM Buffer (1× phosphate buffered saline (PBS) + 0.5%BSA). The primary Rabbit polyclonal NFAT1 antibody was diluted 1:50 in PWB. Following this, 1:200 dilution of secondary AF647 conjugated F(ab’)2 fragment donkey anti rabbit IgG antibody (Jackson ImmunoResearch Laboratories Inc., West Grove, PA, USA) was added. Just prior to data acquisition on the ImageStream, DAPI was added to all samples (0.5 µg/mL final concentration), to stain the nucleus.
(§2) Imaging flow cytometry acquisition, compensation, and analysis was performed on an imaging flow cytometer (ImagestreamX Mk-II; Amnis, part of MilliporeSigma, Seattle, WA, USA) as described previously. Following compensation for spectral overlap, image analysis was performed with IDEAS® software (Amnis, Seattle, WA, USA). To assess nuclear NFAT1 translocation, the corresponding nuclear image and NFAT1 image of each cell was compared and a Similarity Score (SS) was assigned for individual cells using published methods (Figure S3).

NFAT1 = NFAT1 nuclear translocation in T cells by imaging flow cytometry (similarity score); assay type: cell-based, human; conditions: for nuclear translocation of NFAT1: non-stimulated CD8+ T cells
Protocol: as §1, §2

[2] = Plasma pharmacokinetics of oral sorafenib in woodchucks (LC-MS/MS, noncompartmental analysis); assay type: in vivo, woodchuck (Marmota monax); conditions: for AUC / Cmax / Tmax: plasma, po; for AUC / Cmax / Tmax / Cmax/D, Geo Mean (%CV): woodchuck plasma; for Cmax: read-out: Cmax, Geo Mean (%CV); for Tmax: read-out: Tmax, Geo Mean (%CV)
Protocol: Woodchuck plasma study samples were analyzed for sorafenib with an LC-MS/MS assay using authentic standards of sorafenib and the internal standard (IS), d3-sorafenib, both obtained from Toronto Research Chemicals (Toronto, ON, Canada). Study samples were quantitated using calibration and quality control (QC) samples prepared by spiking sorafenib into sodium heparinized human plasma (Bioreclamation, LLC, Westbury, NY, USA). The woodchuck plasma study samples were extracted using a Quadra 4 SPE Automated Liquid Handling System (Tomtec Inc., Hamden, CT, USA) by mixing a 50 µL aliquot of a calibrator, QC, plasma blank, or study sample with 500 µL of ice cold acetonitrile containing the IS for the LC-MS/MS. LC-MS/MS analysis was performed using a Finnigan Surveyor MS Pump Plus and Thermo Pal Autosampler System interfaced with a TSQ Quantum Ultra Mass Spectrometer, all obtained from Thermo Fisher Scientific (Waltham, MA, USA). A noncompartmental pharmacokinetic analysis (NCA) was performed on individual concentration-time data using a linear trapezoidal, linear/log interpolation calculation method with uniform weighting. The software program utilized for this analysis was Phoenix 64 WinNonlin Version 6.3 (Pharsight Corp., St. Louis, MO, USA). Study sample (n = 9) concentrations that were above the lower limit of quantitation (LLOQ) of the assay (62.5 ng/mL) following dose administration (Day 1: pre-dose and 1, 3, 5, 7 and 24 h; Day 19: pre-dose and 1, 3, 5, and 7 h) were used in the NCA.
All WHV carrier woodchucks were randomly divided into three groups such as placebo, low dose (2.5 mg/kg/day), and high dose (5.0 mg/kg/day) groups (n = 5 animals/group) in a long-term efficacy study based on clinical and preclinical studies. Also, a compartmental pharmacokinetic (PK) model was used to select the two lowest doses that can achieve exposure sufficient to inhibit pharmacodynamic targets. Experimental woodchucks were treated with placebo, 2.5 mg/kg, or 5.0 mg/kg sorafenib once daily with a 5 days on and 2 days off schedule. Animals were dosed orally until tumor development. Another experiment was performed with the low (2.5 mg/kg/day) and high (5.0 mg/kg/day) dose groups (n = 3 animals/group) to see the efficacy of short-term (90 days treatment) usage of sorafenib. The primary endpoint of the in vivo study was disease free survival (DFS), and DFS was measured from the date of randomization until the date of any liver tumor detection. The secondary endpoint was tumor size over 2 cm, which was measured from the date of first tumor detection. All experimental protocols were approved by IACUC.

HCC = assay: Tumor histology: H&E necrosis and CD3 immunohistochemistry; assay type: in vivo, woodchuck (Marmota monax)
Protocol: Tumor specimens were diagnosed as HCC based on the established classification of neoplastic liver lesions. After standard processing and embedding in paraffin, 4 μm sections were prepared, deparaffinized, stained with hematoxylin-eosin (H&E), studied with a Zeiss Axio Imager A1 microscope (Carl Zeiss, Oberkochen, Germany) by a pathologist blinded to the treatment arm. Morphometric study of areas of necrosis was compared to the size of the tumor sections by counting view fields at medium objective magnification. IHC staining with mouse anti-rat CD3 (BD Biosciences, San Jose, CA, USA) was performed on […] paraffin sections of posttreatment tumor tissues obtained after tumor reached over 2 cm. Images of at least 7 randomly selected fields (unit area of each field, 0.34 mm^2) were captured by observers blinded to sample identity. Identical exposure times and image settings were used within each experiment. Images were analyzed with ImageJ software (http://rsb.info.nih.gov/ij, Bethesda, MD, USA).

[3] = high dose (10 µM), PD-1+ T cells
[4] = 2.5 mg/kg, oral 2.5 mg/kg, Day 1
[5] = 2.5 mg/kg, oral 2.5 mg/kg, Day 19
[6] = 5 mg/kg, oral 5.0 mg/kg, Day 19

## CNC(=O)c1cc(Oc2ccc(NC(=O)Nc3ccc(Cl)c(C(F)(F)F)c3)cc2)ccn1 [sorafenib, Sorafenib]
[1]; clinical trials
  plasma concentration of sorafenib in clinical trials: approximately 2 mg/L
[1]; conversion of 2 mg/L
  plasma concentration of sorafenib in clinical trials: 4 µM
[1]; patients, multiple oral dosing
  time to steady-state concentrations: 7 days
PD-1; dose-dependent manner, % of total CD4+ cells
  proportion of CD4+CD25bright T cells: decrease
PD-1; [3]
  CD8 expression in PD-1+ cells: decreased
PD-1; high dose (10 µM), PD-1 negative T cells
  NFAT1 activation and decreased expression of CD8 in PD-1 negative T cells: not observed
PD-1; high dose (10 µM), without exogenous stimulatory factors
  proportion of PD-1-expressing CD8+ and CD4+ T cells: increased
NFAT1; 10 µM, 1 h exposure
  nuclear translocation of NFAT1: no significant increase
NFAT1; 10 µM, 4 h exposure
  nuclear translocation of NFAT1: most significant increase
NFAT1; 10 µM, PMA/ionomycin stimulation, lesser extent than CD3/CD28
  effect on PMA/ionomycin-induced T cell stimulation (NFAT1): inhibitory effect
NFAT1; 10 µM, absence of CD3/CD28 stimulation
  baseline activity of NFAT1 in T cells: significantly increased
NFAT1; 10 µM, presence of CD3/CD28 stimulation
  anti-CD3/CD28-induced NFAT1 activity: significantly inhibited
NFAT1; [3]
  NFAT1 activation in PD-1+ cells: increased
NFAT1; lower doses of sorafenib, absence of exogenous stimulatory factors
  NFAT1 activation: not observed
[2]; 5.0 vs 2.5 mg/kg, Day 1
  Cmax/D of high dose group relative to low dose group: ~ 8 times
[2]; 5.0 vs 2.5 mg/kg, Day 19
  Cmax/D of high dose group compared with low dose group: the same
[2]; 2.5 mg/kg, oral 2.5 mg/kg, Day 1, read-out: AUC1–7 h, Geo Mean (%CV)
  AUC: 588 ng·h/mL
[2]; 2.5 mg/kg, oral 2.5 mg/kg, Day 1, read-out: AUCAll, Geo Mean (%CV)
  AUC: 2600 ng·h/mL
[2]; [4]
  Cmax: 136 ng/mL
  Tmax: 5.92 h
[2]; 2.5 mg/kg, oral 2.5 mg/kg, Day 19, read-out: AUC1–7 h, Geo Mean (%CV)
  AUC: 26800 ng·h/mL
[2]; 2.5 mg/kg, oral 2.5 mg/kg, Day 19, read-out: AUCAll, Geo Mean (%CV)
  AUC: 30300 ng·h/mL
[2]; [5]
  Cmax: 4970 ng/mL
  Tmax: 4.22 h
[2]; 5 mg/kg, oral 5.0 mg/kg, Day 1, read-out: AUC1–7 h, Geo Mean (%CV)
  AUC: 5960 ng·h/mL
[2]; 5 mg/kg, oral 5.0 mg/kg, Day 1, read-out: AUCAll, Geo Mean (%CV)
  AUC: 21000 ng·h/mL
[2]; 5 mg/kg, oral 5.0 mg/kg, Day 1
  Cmax: 1170 ng/mL
  Tmax: 3.98 h
[2]; 5 mg/kg, oral 5.0 mg/kg, Day 19, read-out: AUC1–7 h, Geo Mean (%CV)
  AUC: 39100 ng·h/mL
[2]; [6]
  Cmax: 7380 ng/mL
  Tmax: 3.98 h
[2]; oral 2.5 mg/kg, Day 1
  Cmax/D, Geo Mean (%CV): 2, 54.4 (3.41) (ng/mL)/(mg/kg)
[2]; oral 2.5 mg/kg, Day 19
  Cmax/D, Geo Mean (%CV): 3, 1990 (19.8) (ng/mL)/(mg/kg)
[2]; oral 5.0 mg/kg, Day 1
  Cmax/D, Geo Mean (%CV): 3, 433 (75.8) (ng/mL)/(mg/kg)
[2]; oral 5.0 mg/kg, Day 19
  Cmax/D, Geo Mean (%CV): 3, 2000 (54.5) (ng/mL)/(mg/kg)
HCC; high dose vs placebo, tumor over 2 cm, p = 0.02
  necrotic change of HCC (H&E): significantly large necrotic change
HCC; high vs low dose, p = 0.07
  necrotic change of HCC (H&E): no statistical difference
HCC; low dose compared to high dose
  CD3+ cell infiltration in tumors: More CD3+ cells
HCC; low dose vs placebo
  CD3+ cell infiltration in tumors: no statistical difference
